Experimental data published in US7402606B2, “Derivatives of 1-(oxoaminoacetyl) pentylcarbamate as cathepsin K inhibitors for the treatment of bone loss” (SmithKline Beecham Corporation, priority 2002, dated 2008).

Columns and labels:
Format in all cases: biochemical
rat cathepsin K = molecular target: T1, rat cathepsin K (Rattus norvegicus, UniProt O35186); assay: Cathepsin K inhibition assay, rat recombinant enzyme, fluorogenic substrate Cbz-Phe-Arg-AMC; conditions: Table 2, rat cathepsin K; read-out: r Cat K IC50
T1 construct: The proform of cathepsin K was converted to mature cathepsin K by brief exposure to pH 4; made in house; host or cells: baculovirus; Trichoplusia ni High Five cells (virus raised in Sf-9)
T1 sequence (O35186 115-329): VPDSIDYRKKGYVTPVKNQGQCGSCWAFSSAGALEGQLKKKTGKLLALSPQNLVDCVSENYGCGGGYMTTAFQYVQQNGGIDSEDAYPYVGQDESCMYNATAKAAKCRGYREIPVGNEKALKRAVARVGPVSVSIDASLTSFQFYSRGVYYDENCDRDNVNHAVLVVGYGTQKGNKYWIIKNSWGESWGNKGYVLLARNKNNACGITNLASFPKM
Procedure: (§1) All assays for cathepsin K were carried out with human and rat recombinant enzyme. Assays for cathepsins S ? V were also carried out with human recombinant enzyme. Assays for human cathepsins B, H, and L were carried out with enzyme, purchased from Athens Research and Technology, Inc., prepared from human liver tissue. Standard assay conditions for the determination of kinetic constants used a fluorogenic peptide substrate, typically (5S,8S)-13-amino-5-benzyl-13-imino-3-methylene-N-(4-methyl-2-oxo-2H-chromen-7-yl)-6-oxo-1-phenyl-2-oxa-4,7,12triazatridecane-8-carboxamide (Cbz-Phe-Arg-AMC), and were determined in 100 mM sodium acetate at pH 5.5 containing 10 mM dithiothreitol and 120 mM sodium chloride. […]
(§2) All assays contained 10% dimethyl sulfoxide. […] Product fluorescence (excitation at 360 nm; emission at 440 nm, (except cathepsin H which used excitation at 340 nm; emission at 420 nm)) was monitored with a PerSeptive Biosystems Cytofluor II fluorescence plate reader. […]
Protein Purification: Media (human and rat) were filtered through a Whatman 3 filter, and then loaded onto a 25 mL. […] The column was washed until the absorbance reached the baseline value, and then the protein was eluted with a linear gradient from 0-2 M sodium chloride in the equilibration buffer. Column fractions were analyzed by SDS-PAGE, N-terminal sequencing, and mass spectrometry. […]

human cathepsin V = human cathepsin V (Homo sapiens, UniProt O60911); assay: Cathepsin V inhibition assay, human recombinant enzyme, Cbz-Phe-Arg-AMC; conditions: Table 2, human cathepsin V; read-out: h Cat V IC50
human cathepsin V, sequence (O60911 114-334): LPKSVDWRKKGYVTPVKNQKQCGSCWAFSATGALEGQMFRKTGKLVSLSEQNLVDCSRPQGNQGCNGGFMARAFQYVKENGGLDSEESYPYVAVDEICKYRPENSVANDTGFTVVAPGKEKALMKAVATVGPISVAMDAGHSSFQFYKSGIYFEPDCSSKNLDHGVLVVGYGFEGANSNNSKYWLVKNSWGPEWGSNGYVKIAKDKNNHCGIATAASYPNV
Procedure: as §1, §2
(§3) Potential inhibitors were evaluated using the progress curve method. […] For those compounds whose progress curves were linear, the enzymatic activity (RATE) was plotted against the concentration of test compound, including inhibitor concentration of zero ([I]=0), and the IC50 determined from a fit of equation 1 to the data, RATE=Vmax/(1+([I]/IC50)) (1) where Vmax is the best fit estimate of the maximal enzymatic activity. […]

human cathepsin L = human cathepsin L (Homo sapiens, UniProt P07711); assay: Cathepsin L inhibition assay, enzyme from human liver tissue, Cbz-Phe-Arg-AMC; conditions: Table 2, human cathepsin L; read-out: h Cat L IC50
human cathepsin L, sequence (P07711 114-333): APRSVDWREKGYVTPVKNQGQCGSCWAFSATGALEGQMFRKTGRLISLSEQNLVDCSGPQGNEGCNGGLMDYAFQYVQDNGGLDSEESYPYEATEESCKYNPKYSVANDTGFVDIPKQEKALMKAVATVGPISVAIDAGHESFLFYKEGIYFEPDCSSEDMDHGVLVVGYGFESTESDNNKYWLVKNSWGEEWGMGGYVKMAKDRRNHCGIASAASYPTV
Procedure: as §1, §2, §3

| IC50 (rat cathepsin K) [nM] | IC50 (human cathepsin V) [nM] | IC50 (human cathepsin L) [nM] | Structure (SMILES) |
| --- | --- | --- | --- |
| 10 to 100 | 10 to 100 | 100 to 1000 | CCCC[C@H](NC(=O)O[C@@H]1CN(C(=O)Nc2ccc(C(F)(F)F)cc2)CC1(C)C)C(=O)C(=O)Nc1ccn[nH]1 [Example 71, (3S)-4,4-dimethyl-1-{[4-(trifluoromethyl)anilino]carbonyl}pyrrolidinyl (1S)-1-[oxo(1H-pyrazol-5-ylamino)acetyl]pentylcarbamate] |
| 10 to 100 | 10 to 100 | 100 to 1000 | CCCC[C@H](NC(=O)O[C@@H]1CN(c2nnc(C(F)(F)F)s2)CC1(C)C)C(=O)C(=O)Nc1ccn[nH]1 [Example 82, (3S)-4,4-Dimethyl-1-[5-(trifluoromethyl)-1,3,4-thiadiazol-2-yl]pyrrolidinyl-(1S)-1-[oxo(1H-pyrazol-5-ylamino)acetyl]pentylcarbamate] |
